For the experiment, the system named is MDA-MB-468 breast. The experiment can be described thus: DTP human tumour cell line panel, 48 h.

Several values for one entry are separate records, joined by “and”; a condition that tells them apart may be missing. Equal entries are not always repeated.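 Tested at 5 concentrations; 48 h exposure; 96-well plates; endpoints linearly interpolated, else capped at highest concentration. GI50 is the concentration that inhibits growth by half. TGI: total growth inhibition.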

The results in this text go back to PubChem BioAssay (NCI).

One may read the GI50 as the concentration at which growth is held to half of that of the control. Broadly, the TGI is the concentration giving total growth inhibition. The low end stands for more potent growth arrest, the high end for less potent growth arrest. On to `CCCc1cc2cc(-n3nc(CC)c4c3CC(C)(C)CC4=O)cc(NC3CCC(O)CC3)c2c(=O)[nH]1` (stereo unspecified), for which the concentration for 50% growth inhibition (GI50) was 0.212 µM and the TGI was over 100 µM.

In the case of `CN(C)c1ncc(-c2ccc(C(F)(F)F)cc2)c(NC2CCCCCC2)n1`, the GI50 was 14.3 µM and the TGI stood at 37.1 µM. Consider `Cc1nccc2c3ccc(OCc4cn(-c5ccc(Cl)cc5)nn4)cc3n(CCCc3ccccc3)c12`, for which the GI50 was 6.07 µM and the TGI is 19.1 µM. With `COc1cc(Nc2ncc(F)c(Nc3ccc4c(n3)NC(=O)C(C)(C)O4)n2)cc(OC)c1OC`, the GI50 was 8.5 µM and 4.91 µM; the concentration for total growth inhibition (TGI) is over 100 µM. In the case of `CCC(=C(c1ccc(OCCN(C)C)cc1)c1ccc(OCCN(C)C)cc1)c1ccc(Cl)cc1`, the GI50 was 2.95 µM and the TGI is 6.7 µM. `Nc1ccccc1NC(=O)c1ccc(CCCC(=O)Nc2ccc(C3CC3N)cc2)cc1` (stereo unspecified): the GI50 is 1.62 µM and the TGI is 4.53 µM. As to `Cc1cccc(/C=C/C(=O)Nc2ncc(Cc3cccc(C)c3)s2)c1`, the GI50 is 3.77 µM and the concentration for total growth inhibition (TGI) was over 100 µM.

With `Oc1cccc2ccc(-c3nnc(SCc4ccc(O)c5ncccc45)n3-c3ccccc3)nc12`, the GI50 was 0.813 µM and the TGI was determined as 9.52 µM. Consider `Fc1ccc(-c2ncn(C3CCNCC3)c2-c2ccnc(Oc3ccc(F)c(F)c3)n2)cc1`, for which the GI50 was 2.34 µM and the TGI came to 5.86 µM. The like results for `O=c1c(O)cccc2cc(O)c(O)c(O)c12` were, in that order, 47.6 µM and over 100 µM.

Take `COc1cc(OC)c(/C=C/S(=O)(=O)Cc2ccc(OC)c(NC(=O)CCC(=O)NO)c2)c(OC)c1`: the GI50 is 0.0549 µM and the TGI is over 100 µM.

For the compound `CCN(CC)c1ccc2c(c1)Oc1nc(N)c(C#N)c(N)c1C2Sc1ccc(OC)cc1` (stereo unspecified), the GI50 is 1.85 µM and the TGI is 3.51 µM. Taken in the same sequence, the figures for `CN1C(=O)[C@@H](NC(=O)[C@H](CCC(F)(F)F)[C@H](CCC(F)(F)F)C(N)=O)N=C(c2ccccc2)c2ccccc21` were 21.2 µM and over 100 µM. For `CN1CCN(c2cc(C(=O)Nc3cc4cc(-c5cnn(C)c5)ccc4cn3)ccn2)CC1`, the GI50 is 0.0348 µM and the TGI came to 0.286 µM.

Consider `CS(=O)(=O)Nc1cccc(-c2cc(-c3ccccc3Cl)c(C#N)c(N)n2)c1`, for which the GI50 is 1.19 µM and the concentration for total growth inhibition (TGI) is 7.75 µM. Regarding `COC1=CC(=O)C(OC)=C(OC)C1=O`, the GI50 is 1.61 µM and the TGI was determined as 3.16 µM. The like results for `COC(=O)Nc1nc2ccc(C(=O)c3ccc(N(C)C4COC4)cc3)cc2[nH]1` were, in that order, 0.224 µM and over 100 µM. `O=[N+]([O-])c1ccccc1NC1c2ccccc2Oc2ccccc21`: the GI50 was 2.21 µM and the TGI worked out at 5.4 µM. Take `O=C(O)CCC/C=C\C[C@H]1C=CC(=O)/C1=C/C[C@@H](O)CCc1cccc(C(F)(F)F)c1`: the GI50 is 1.24 µM and the TGI turned out to be 3.27 µM. For the compound `N#CC(C#N)N=Nc1ccc(Br)cc1`, the GI50 is 1.01 µM and the TGI worked out at 5.1 µM. `CS(=O)(=O)CCNCc1ccc(-c2ccc3ncnc(Nc4ccc(OCc5cccc(F)c5)c(C(F)(F)F)c4)c3c2)o1`: the GI50 is 1.42 µM and the concentration for total growth inhibition (TGI) turned out to be 6.09 µM. Taken in the same sequence, the figures for `N#CSc1c[nH]c2ccc(/C=C/C(=O)/C=C(/C=C/c3ccc4[nH]cc(SC#N)c4c3)OB(F)F)cc12` were 0.91 µM and 4.09 µM. With `CN(C)C/C=C/C(=O)Nc1cc2c(Nc3ccc(F)c(Cl)c3F)ncnc2cc1OCCOC(F)F`, the 50% growth inhibitory concentration (GI50) was under 0.01 µM.

On to `Cc1cc(Nc2c3ccccc3nc3ccccc23)ccc1NS(C)(=O)=O`, for which the GI50 is 2.29 µM and the TGI stood at 8.81 µM. Turning to `CCCCCCCCCCCCCCCC[N+](C)(CCO)Cc1cnc[nH]1` (stereo unspecified), the GI50 was 0.396 µM and the TGI came to 10.1 µM. Consider `CN1CCN(c2ccc(Nc3nc(N)c(C(=O)c4ccc5c(c4)OCCO5)s3)cc2)CC1`, for which the GI50 was 5.56 µM and the concentration for total growth inhibition (TGI) was over 17.6 µM. The like results for `Cc1cc2cn3c4ccc(O)cc4[nH]c(=O)c3c2cc1C` were, in that order, 0.178 µM and 0.772 µM. As for `Nc1ncnc2c1c(-c1cccc(OCc3ccccc3)c1)cn2C1CC(CN2CCC2)C1` (stereo unspecified), the GI50 is 1.96 µM and 2.14 µM; the TGI was 5.98 µM and 8.79 µM.

Regarding `CC(=O)N1c2ccccc2NC2=C(C(=O)N(Cc3ccccc3)C2(C)C)C1c1ccco1` (stereo unspecified), the GI50 is 0.0897 µM and the TGI is over 25 µM.

For `CCCCCCCCCc1cc[n+](CC(=O)c2ccc([N+](=O)[O-])cc2)cc1`, the GI50 was 0.446 µM and the TGI amounted to 1.75 µM. Turning to `C[C@@H]1Cc2c([nH]c3ccccc23)[C@@H](c2c(F)cc(NC3CN(CCCF)C3)cc2F)N1CC(F)(F)CO`, the GI50 was 1.95 µM and the concentration for total growth inhibition (TGI) worked out at 4.86 µM. For `O=C(/C=C/C=C/c1c(C2CC2)nc2ccccc2c1-c1ccc(F)cc1)c1cccs1`, the GI50 is 2.75 µM and the TGI is over 100 µM. As to `CC(C)CC(=O)Nc1n[nH]c2c1CN(C(=O)C1CCN(C)CC1)C2(C)C`, the GI50 is 1.13 µM and the concentration for total growth inhibition (TGI) amounted to 5.18 µM. With `O=C(NCCCNc1cc(-c2cn(-c3ccccc3)nc2-c2cccc(O)c2)ccn1)Nc1ccc(F)cc1`, the GI50 is 1.18 µM and the concentration for total growth inhibition (TGI) is 4.66 µM. Taken in the same sequence, the figures for `Cc1cc(O)c(C2=NN(c3ccc(S(N)(=O)=O)cc3)C(c3ccc(N(C)C)cc3)C2)c(C)c1Cl` (stereo unspecified) were 17.1 µM and 33.8 µM. Consider `CCn1cc(-c2ccnc3[nH]ccc23)c(-c2cccc(NC(=O)Nc3ccc(OCc4ccccc4)cc3)c2)n1`, for which the GI50 is 18.2 µM and the total growth inhibition concentration (TGI) is over 25 µM.
